Key:
[1] = tested on: New Zealand rabbits with acute ocular hypertension; experiment: Intraocular pressure reduction experiment in New Zealand rabbits with acute ocular hypertension, experiment operation 2; type: in vivo; conditions: for Intraocular pressure in the left eye: 4 mg/mL group, left eye (solvent, not modeled); for Intraocular pressure in the right eye: 4 mg/mL in right eye (induced ocular hypertension)
Text: Experimental Example 3. Intraocular Pressure Reduction Experiment in New Zealand Rabbits with Acute Ocular Hypertension
Acute ocular hypertension of rabbits were induced by anterior chamber injection of a viscoelastic agent and the intraocular pressure reduction action of compound 60 and compound 63 at different concentrations were explored by eye-drop administration.
Male New Zealand rabbits, aged 97-127 days, weighted 2.5-3.4 kg, purchased from PizhouDongfang Breeding Co. Ltd.
50 male New Zealand rabbits were randomly divided into 5 groups according to body weight, with 10 rabbits/per group Animals in 1-5 groups were injected with medical sodium hyaluronate gel in the anterior chamber of right eye in a single dose, 100 μL/eye, to induce ocular hypertension. In 5-15 minutes after modeling, the right eye was respectively dropped with a solvent, K-115 and test samples (compound 63 at different concentrations), the left eye was dropped with a solvent, the volume of the administration was all 50 μL/eye, and intraocular pressure in both eyes of the animals was measured before administration and in 2, 4, 6, 8 and 10 hours after administration, respectively.

[2] = tested on: New Zealand rabbits with normal intraocular pressure; experiment: Repeated eye-drop administration for 14 days, experiment operation 2: Day 1 intraocular pressure; type: in vivo; conditions: Day 1; for Mean intraocular pressure of both eyes: 4 mg/mL in right eye, saline in left; for Change of intraocular pressure: 4 mg/mL, group minus negative control
Text: Experimental example 4. Experiment on reduction of intraocular pressure and ocular toxicity of New Zealand rabbits with normal intraocular pressure by repeated eye-drop administration for 14 days
The intraocular pressure reduction action and the potential ocular toxicity of compound 63 were explored by 14 days of repeated eye-drop administration in rabbits with normal intraocular pressure.
Male New Zealand rabbits, aged 97-127 days, weighted 2.6-3.5 kg, purchased from PizhouDongfang Breeding Co. Ltd.
42 male New Zealand rabbits were randomly divided into 7 groups, with 6 rabbits per group. Animals were randomly divided according to body weight Animals in 1-7 groups were eye-dropped with normal saline in the left eye and with solvent/control sample/test sample in the right eye respectively by a volume of 50 μL/eye, once per day for 14 consecutive days, and the day of administration was recorded as Day 1. The intraocular pressure of the animals was measured before Day 1 administration and in 1, 2, 4, 6, 8 and 10 hours after Day 1 administration, respectively (Table 8).

SMILES: C[C@H]1CNCCCN1S(=O)(=O)c1cccc2cncc(F)c12 [Compound K-115, reference compound]
- Intraocular pressure in the left eye ([1]; 2 hours after administration): 6.50 mmHg
- Intraocular pressure in the left eye ([1]; 4 hours after administration): 8.54 mmHg
- Intraocular pressure in the left eye ([1]; 6 hours after administration): 11.40 mmHg
- Intraocular pressure in the left eye ([1]; 8 hours after administration): 13.20 mmHg
- Intraocular pressure in the left eye ([1]; 10 hours after administration): 13.37 mmHg
- Intraocular pressure in the left eye ([1]; before administration): 11.80 mmHg
- Intraocular pressure in the right eye ([1]; 2 hours after administration): 8.20 mmHg
- Intraocular pressure in the right eye ([1]; 4 hours after administration): 11.27 mmHg
- Intraocular pressure in the right eye ([1]; 6 hours after administration): 15.07 mmHg
- Intraocular pressure in the right eye ([1]; 8 hours after administration): 15.57 mmHg
- Intraocular pressure in the right eye ([1]; 10 hours after administration): 16.47 mmHg
- Intraocular pressure in the right eye ([1]; before administration): 11.77 mmHg
- Mean intraocular pressure of both eyes ([2]; 1 hour after administration): 5.50 mmHg
- Mean intraocular pressure of both eyes ([2]; 2 hours after administration): 7.06 mmHg
- Mean intraocular pressure of both eyes ([2]; 4 hours after administration): 9.00 mmHg
- Mean intraocular pressure of both eyes ([2]; 6 hours after administration): 9.17 mmHg
- Mean intraocular pressure of both eyes ([2]; 8 hours after administration): 10.61 mmHg
- Mean intraocular pressure of both eyes ([2]; 10 hours after administration): 12.33 mmHg
- Mean intraocular pressure of both eyes ([2]; before administration): 10.17 mmHg
- Change of intraocular pressure ([2]; 1 hour after administration): −3.39 mmHg
- Change of intraocular pressure ([2]; 2 hours after administration): −2.50 mmHg
- Change of intraocular pressure ([2]; 4 hours after administration): −0.89 mmHg
- Change of intraocular pressure ([2]; 6 hours after administration): −1.61 mmHg
- Change of intraocular pressure ([2]; 8 hours after administration): 0.23 mmHg
- Change of intraocular pressure ([2]; 10 hours after administration): 0.17 mmHg
- Change of intraocular pressure ([2]; before administration): 0.83 mmHg
